# From US5565480A, “Substituted histidines” (SmithKline Beecham Corporation, priority 1995, dated 1996)
# System: pressor response to exogenous angiotensin II
# Experiment: Inhibition of pressor response to angiotensin II in conscious rats
# Assay type: in vivo
# Conditions: Rattus norvegicus, iv, change in mean arterial pressure, read-out: IC50, dose of compound needed to produce 50% inhibition of the control response to angiotensin II
# Protocol: Angiotensin II antagonist activity of the compounds of Formula (I) is assessed by in and in vivo methods. In vitro antagonist activity is determined by the ability of the compounds to compete with ^125 I-angiotensin II for binding to vascular angiotensin II receptors and by their ability to antagonize the contractile response to angiotensin II in the isolated rabbit aorta. In vivo activity is evaluated by the efficacy of the compounds to inhibit the pressor response to exogenous angiotensin II in conscious rats and to lower blood pressure in a rat model of renin dependent hypertension.
# Rats are prepared with indwelling femoral arterial and venous catheters and a stomach tube (Gellai et al., Kidney Int. 15:419, 1979). Two to three days following surgery the rats are placed in a restrainer and blood pressure is continuously monitored from the arterial catheter with a pressure transducer and recorded on a polygraph. The change in mean arterial pressure in response to intravenous injections of […] angiotensin II is compared at various time points prior to and following the administration of the compounds intravenously or orally at doses of 3 to 300 mg/kg. The dose of compound needed to produce 50% inhibition of the control response to angiotensin II (IC50) is used to estimate the potency of the compounds. […]
smiles,measurement,value
"CCCCc1ncc(C[C@H](NC(=O)CCC)C(=O)O)n1Cc1ccccc1Cl [Example 8, 3-[(2-Chlorophenyl)methyl]-2-n-butyl-N-butyrylhistidine]",ED50,10 mg/kg
